Source: US20230141603A1, “BENZODIAZEPINE DERIVATIVES AS GABA A GAMMA1 PAM” (Hoffmann-La Roche Inc., priority 2021, published 2023)

biological target: T1, h-GABAA α1β2γ1 (Homo sapiens, UniProt P14867+Q8N1C3); assay: Radioligand binding assay, [3H]RO7239181 competition, HEK293F membranes
T1 construct: expressed in transfected cells; host or cells: HEK293F cells (ThermoFisher R79007), membranes
T1 sequence (P14867 28-456): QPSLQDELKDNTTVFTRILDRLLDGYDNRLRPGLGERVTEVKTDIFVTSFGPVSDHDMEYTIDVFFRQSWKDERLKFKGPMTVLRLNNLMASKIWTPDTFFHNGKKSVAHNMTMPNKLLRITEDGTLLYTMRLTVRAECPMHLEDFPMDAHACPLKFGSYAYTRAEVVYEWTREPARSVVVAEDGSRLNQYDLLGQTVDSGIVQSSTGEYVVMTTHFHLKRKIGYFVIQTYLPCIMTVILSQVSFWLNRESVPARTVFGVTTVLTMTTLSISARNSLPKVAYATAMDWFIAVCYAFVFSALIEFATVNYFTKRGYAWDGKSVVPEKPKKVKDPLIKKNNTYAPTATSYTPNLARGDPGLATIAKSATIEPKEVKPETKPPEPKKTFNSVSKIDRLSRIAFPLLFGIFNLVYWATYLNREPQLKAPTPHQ
T1 sequence (P47870 25-512 partner limits assumed): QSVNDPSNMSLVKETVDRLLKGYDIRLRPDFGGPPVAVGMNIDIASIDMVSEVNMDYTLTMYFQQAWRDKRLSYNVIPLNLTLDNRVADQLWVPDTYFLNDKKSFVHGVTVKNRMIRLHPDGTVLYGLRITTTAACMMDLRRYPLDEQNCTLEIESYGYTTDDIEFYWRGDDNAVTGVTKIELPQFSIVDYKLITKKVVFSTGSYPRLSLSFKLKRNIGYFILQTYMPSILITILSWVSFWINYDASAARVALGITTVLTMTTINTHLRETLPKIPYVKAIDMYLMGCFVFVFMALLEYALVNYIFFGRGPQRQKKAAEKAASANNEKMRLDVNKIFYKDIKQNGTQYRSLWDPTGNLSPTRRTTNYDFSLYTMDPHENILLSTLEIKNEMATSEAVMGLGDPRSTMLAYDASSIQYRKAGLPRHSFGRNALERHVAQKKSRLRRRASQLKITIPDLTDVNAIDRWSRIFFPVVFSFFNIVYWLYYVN
T1 sequence (Q8N1C3 36-465): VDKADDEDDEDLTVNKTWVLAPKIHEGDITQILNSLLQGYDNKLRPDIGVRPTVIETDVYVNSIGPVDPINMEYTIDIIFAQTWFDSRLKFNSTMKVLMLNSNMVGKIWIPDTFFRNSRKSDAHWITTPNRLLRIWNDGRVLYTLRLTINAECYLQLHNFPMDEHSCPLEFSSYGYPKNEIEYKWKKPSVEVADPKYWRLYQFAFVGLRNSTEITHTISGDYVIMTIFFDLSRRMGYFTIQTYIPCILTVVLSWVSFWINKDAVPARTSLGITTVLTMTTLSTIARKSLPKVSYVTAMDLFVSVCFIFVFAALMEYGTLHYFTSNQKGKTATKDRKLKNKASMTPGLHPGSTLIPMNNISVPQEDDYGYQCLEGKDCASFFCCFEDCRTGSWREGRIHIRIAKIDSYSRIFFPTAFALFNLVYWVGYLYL
Description: The affinity of compounds at GABAA γ1 subunit-containing receptors was measured by competition for [^3H]RO7239181 (67.3 Ci/mmol; Roche) binding to membranes from HEK293F cells (ThermoFisher R79007) expressing human (transiently transfected) receptors of composition […], α2β2γ1, α1β2γ1.
Harvested pellets from HEK293F cells expressing the different GABAA receptor subtypes were resuspended in Mannitol Buffer pH 7.2-7.4 (Mannitol 0.29M, Triethylamine 10 mM, Acetic acid 10 mM, EDTA 1 mM plus protease inhibitors (20 tablets Complete, Roche Diagnostics Cat. No. 05 056 489 001 per liter)), washed two times and then resuspended at 1:10 to 1:15 dilution in the same buffer. Cell disruption was performed by stirring the suspension in a Parr vessel #4637 at 435 psi for 15 minutes, and then the suspensions were centrifuged at 1000×g for 15 minutes at 4° C. (Beckman Avanti J-HC; rotor JS-4.2). The supernatant (S1) was transferred in a 21 Schott flask and the pellet (P1) was resuspended with Mannitol Buffer up to 175 ml. The resuspended pellet was transferred into a 250 ml Corning centrifugal beaker and centrifuged at 1500×g for 10 minutes at 4° C. (Beckman Avanti J-HC; rotor JS-4.2). The supernatant (S1) was then transferred in the 21 Schott flask and the pellet was discarded. The supernatants (S1) were centrifuged in 500 ml Beckman polypropylene centrifugal beaker at 15′000×g for 30 minutes at 4° C. (Beckman Avanti J-20 XP; rotor JLA-10.500). The pellet (P2) was resuspended with Mannitol Buffer 1:1 and frozen at −80° C. The supernatant (S2) was centrifuged in 100 ml Beckman polypropylene centrifugal tubes at 48000×g for 50 minutes at 4° C. (Beckman Avanti J-20 XP; rotor JA-18). The supernatant (S3) was discarded and the pellet (P3) was resuspended with 1:1 Mannitol Buffer. The P2 and P3 protein concentration was determined with the BIORAD Standard assay method with bovine serum albumin as standard and measured on the NANO-Drop 1000. The membrane suspension was aliquots (500 μl per tube) and stored at −80° C. until required. Membrane homogenates were resuspended and polytronised (Polytron PT1200E Kinematica AG) in Potassium Phosphate 10 mM, KCl 100 mM binding buffer at pH 7.4 to a final assay concentration determined with a previous experiment.
Assays were incubated to equilibrium for 1 hour at 4° C. and then, membranes were filtered onto unifilter (96-well white microplate with bonded GF/C filters preincubated 20-50 minutes in 0.3% Polyethylenimine) with a Filtermate 196 harvester (Packard BioScience) and washed 4 times with cold Potassium Phosphate 10 mM pH 7.4, KCl 100 mM binding buffer. After drying, filter-retained radioactivity was detected by liquid scintillation counting. Ki values were calculated using Excel-Fit (Microsoft) and are the means of two determinations.

`Cc1nnc2n1-c1ccc(Br)c(Cl)c1C(c1c(F)cccc1F)=NC2` [Example 1, 8-bromo-7-chloro-6-(2,6-difluorophenyl)-1-methyl-4H-[1,2,4]triazolo[4,3-a][1,4]benzodiazepine] and `Cc1nnc2n1-c1ccc(Cl)c(Cl)c1C(c1c(F)cccc1F)=NC2` [Example 5, 7,8-dichloro-6-(2,6-difluorophenyl)-1-methyl-4H-[1,2,4]triazolo[4,3-a][1,4]benzodiazepine] are within 1.5-fold of each other in Ki: 0.0113 µM for the first, 0.0082 µM for the second.

Going from `Fc1ccccc1C1=NCc2nnc(C3CC3)n2-c2ccc(Br)c(Cl)c21` [Example 2, 8-bromo-7-chloro-1-cyclopropyl-6-(2-fluorophenyl)-4H-[1,2,4]triazolo[4,3-a][1,4]benzodiazepine] to `Fc1ccccc1C1=NCc2nncn2-c2ccc(Br)c(Cl)c21` [Example 8, 8-bromo-7-chloro-6-(2-fluorophenyl)-4H-[1,2,4]triazolo[4,3-a][1,4]benzodiazepine], the Ki falls from 0.0775 µM to 0.0438 µM (1.8-fold).

`Fc1ccccc1C1=NCc2nnc(-c3cccnn3)n2-c2ccc(Br)c(Cl)c21` [Example 3, 8-bromo-7-chloro-6-(2-fluorophenyl)-1-pyridazin-3-yl-4H-[1,2,4]triazolo[4,3-a][1,4]benzodiazepine] and `Fc1ccccc1C1=NCc2nnc(-c3cccnn3)n2-c2ccc(Cl)c(Cl)c21` [Example 10, 7,8-dichloro-6-(2-fluorophenyl)-1-pyridazin-3-yl-4H-[1,2,4]triazolo[4,3-a][1,4]benzodiazepine] are within 1.5-fold of each other in Ki: 0.0261 µM for the first, 0.0258 µM for the second.

Going from `Cc1nnc2n1-c1ccc(Cl)c(Cl)c1C(c1ccccc1F)=NC2` [Example 4, 7,8-dichloro-6-(2-fluorophenyl)-1-methyl-4H-[1,2,4]triazolo[4,3-a][1,4]benzodiazepine] to `Fc1ccccc1C1=NCc2nnc(-c3ccncn3)n2-c2ccc(Cl)c(Cl)c21` [Example 18, 7,8-dichloro-6-(2-fluorophenyl)-1-pyrimidin-4-yl-4H-[1,2,4]triazolo[4,3-a][1,4]benzodiazepine], the Ki falls from 0.103 µM to 0.0541 µM (1.9-fold).

Compared with `Cc1nnc2n1-c1ccc(C3CC3)c(Cl)c1C(c1c(F)cccc1F)=NC2` [Example 6, 7-chloro-8-cyclopropyl-6-(2,6-difluorophenyl)-1-methyl-4H-[1,2,4]triazolo[4,3-a][1,4]benzodiazepine], `Cc1ccc2c(c1Cl)C(c1c(F)cccc1F)=NCc1nnc(C)n1-2` [Example 20, 7-chloro-6-(2,6-difluorophenyl)-1,8-dimethyl-4H-[1,2,4]triazolo[4,3-a][1,4]benzodiazepine] is 6.4-fold lower in Ki: 0.237 µM for the first, 0.0371 µM for the second. The second binds more tightly here.

`Fc1cccc(F)c1C1=NCc2nncn2-c2ccc(Br)c(Cl)c21` [Example 7, 8-bromo-7-chloro-6-(2,6-difluorophenyl)-4H-[1,2,4]triazolo[4,3-a][1,4]benzodiazepine] and `Fc1cccc(F)c1C1=NCc2nncn2-c2ccc(Cl)c(Cl)c21` [Example 15, 7,8-dichloro-6-(2,6-difluorophenyl)-4H-[1,2,4]triazolo[4,3-a][1,4]benzodiazepine] are within 1.5-fold of each other in Ki: 0.0091 µM for the first, 0.0115 µM for the second.

`O=c1[nH]nc2n1-c1ccc(Cl)c(Cl)c1C(c1c(F)cccc1F)=NC2` [Example 9, 7,8-dichloro-6-(2,6-difluorophenyl)-2,4-dihydro-[1,2,4]triazolo[4,3-a][1,4]benzodiazepin-1-one] and `O=c1[nH]nc2n1-c1ccc(Br)c(Cl)c1C(c1c(F)cccc1F)=NC2` [Example 13, 8-bromo-7-chloro-6-(2,6-difluorophenyl)-2,4-dihydro-[1,2,4]triazolo[4,3-a][1,4]benzodiazepin-1-one] are within 1.5-fold of each other in Ki: 0.0073 µM for the first, 0.0062 µM for the second.

`Fc1cccc(F)c1C1=NCc2nnc(C3CCOCC3)n2-c2ccc(Cl)c(Cl)c21` [Example 11, 7,8-dichloro-6-(2,6-difluorophenyl)-1-tetrahydropyran-4-yl-4H-[1,2,4]triazolo[4,3-a][1,4]benzodiazepine] and `COCCc1nnc2n1-c1ccc(Cl)c(Cl)c1C(c1c(F)cccc1F)=NC2` [Example 19, 7,8-dichloro-6-(2,6-difluorophenyl)-1-(2-methoxyethyl)-4H-[1,2,4]triazolo[4,3-a][1,4]benzodiazepine] are within 1.5-fold of each other in Ki: 0.0603 µM for the first, 0.0439 µM for the second.

Compared with `Fc1cccc(F)c1C1=NCc2nnc(-c3ccncn3)n2-c2ccc(Cl)c(Cl)c21` [Example 12, 7,8-dichloro-6-(2,6-difluorophenyl)-1-pyrimidin-4-yl-4H-[1,2,4]triazolo[4,3-a][1,4]benzodiazepine], `Fc1cccc(F)c1C1=NCc2nnc(-c3cccnn3)n2-c2ccc(Cl)c(Cl)c21` [Example 14, 7,8-dichloro-6-(2,6-difluorophenyl)-1-pyridazin-3-yl-4H-[1,2,4]triazolo[4,3-a][1,4]benzodiazepine] is 3.4-fold lower in Ki: 0.0176 µM for the first, 0.0052 µM for the second. The second binds more tightly here.

First: Cc1ccc2c(c1Cl)C(c1c(F)cccc1F)=NCc1n[nH]c(=O)n1-2 [Example 16, 7-chloro-6-(2,6-difluorophenyl)-8-methyl-2,4-dihydro-[1,2,4]triazolo[4,3-a][1,4]benzodiazepin-1-one]
Second: Cc1ccc2c(c1Cl)C(c1c(F)cccc1F)=NCc1nncn1-2 [Example 17, 7-chloro-6-(2,6-difluorophenyl)-8-methyl-4H-[1,2,4]triazolo[4,3-a][1,4]benzodiazepine]
The Ki of the first is 2.1-fold lower: 0.0227 µM for the first, 0.0477 µM for the second.

`CC(F)(F)c1ccc2c(c1Cl)C(c1c(F)cccc1F)=NCc1nncn1-2` [Example 21, 7-chloro-8-(1,1-difluoroethyl)-6-(2,6-difluorophenyl)-4H-[1,2,4]triazolo[4,3-a][1,4]benzodiazepine] and `Fc1cccc(F)c1C1=NCc2nncn2-c2ccc(C(F)F)c(Cl)c21` [Example 23, 7-chloro-8-(difluoromethyl)-6-(2,6-difluorophenyl)-4H-[1,2,4]triazolo[4,3-a][1,4]benzodiazepine] are within 1.5-fold of each other in Ki: 0.0905 µM for the first, 0.0639 µM for the second.

First: Cc1nnc2n1-c1ccc(C(C)(F)F)c(Cl)c1C(c1c(F)cccc1F)=NC2 [Example 22, 7-chloro-8-(1,1-difluoroethyl)-6-(2,6-difluorophenyl)-1-methyl-4H-[1,2,4]triazolo[4,3-a][1,4]benzodiazepine]
Second: Cc1nnc2n1-c1ccc(Br)c(Cl)c1C(c1ncccc1F)=NC2 [Example 24, 8-bromo-7-chloro-6-(3-fluoro-2-pyridyl)-1-methyl-4H-[1,2,4]triazolo[4,3-a][1,4]benzodiazepine]
The Ki of the first is 1.6-fold higher: 0.0687 µM for the first, 0.0436 µM for the second. The second binds more tightly here.
